From US9663502B2, “2-Acylamidomethyl and sulfonylamidomethyl benzoxazine carbamates for inhibition of RORgamma activity and the treatment of disease” (Merck Sharp & Dohme Corp., priority 2013, dated 2017)

Biological target: human RORgammaT-Ligand Binding Domain (LBD) (Homo sapiens (Human), UniProt P51449)
Experiment: RORγ-Ligand Binding Domain TR-FRET Assay (co-activator peptide SRC1_2 recruitment)
Format: biochemical

Chain of human RORgammaT-Ligand Binding Domain (LBD) (P51449 269-508): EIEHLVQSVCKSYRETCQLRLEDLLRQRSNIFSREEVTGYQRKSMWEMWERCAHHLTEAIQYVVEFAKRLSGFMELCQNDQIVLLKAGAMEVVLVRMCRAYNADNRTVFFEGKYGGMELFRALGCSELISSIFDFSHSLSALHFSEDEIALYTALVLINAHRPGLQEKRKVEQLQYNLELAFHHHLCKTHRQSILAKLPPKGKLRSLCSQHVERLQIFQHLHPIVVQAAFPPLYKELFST

CC(=O)NC[C@H]1CN(S(=O)(=O)c2ccc(F)cc2)c2cc(NC(=O)OC(C3CCCCC3)C(F)(F)F)ccc2O1 (stereo partly drawn) [Example 23D, 1-cyclohexyl-2,2,2-trifluoroethyl ((S)-2-(acetamidomethyl)-4-((4-fluorophenyl)sulfonyl)-3,4-dihydro-2H-benzo[b][1,4]oxazin-6-yl)carbamate]
IC50: 113 nM
